For 17 compounds, IC50, logP and Ratio results are on record in ChEMBL document CHEMBL1132261, “Pneumocystis carinii and Toxoplasma gondii dihydrofolate reductase inhibitors and antitumor agents: synthesis and biological activities of 2,4-diamino-5-methyl-6-[(monosubstituted anilino)methyl] pyrido[2,3-d]pyrimidines” (J Med Chem, 1999).

By pIC50 is commonly meant −log10 of the IC50, conventionally taken in molar units. Higher therefore signals a low IC50.

In series [1] the target is T1, Dihydrofolate reductase (Rattus norvegicus, UniProt Q920D2).
T1 sequence (Q920D2 whole entry): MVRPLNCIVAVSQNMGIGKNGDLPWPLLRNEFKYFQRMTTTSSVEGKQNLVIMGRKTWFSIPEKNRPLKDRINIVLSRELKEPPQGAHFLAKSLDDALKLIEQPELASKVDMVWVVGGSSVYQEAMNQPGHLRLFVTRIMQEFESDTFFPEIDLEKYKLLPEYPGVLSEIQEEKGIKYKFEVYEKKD
Description: Inhibition of dihydrofolate reductase (DHFR) from rat liver (rl)

For series [2], the target named is T2, Bifunctional dihydrofolate reductase-thymidylate synthase (Toxoplasma gondii, UniProt Q07422).
T2 sequence (Q07422 whole entry): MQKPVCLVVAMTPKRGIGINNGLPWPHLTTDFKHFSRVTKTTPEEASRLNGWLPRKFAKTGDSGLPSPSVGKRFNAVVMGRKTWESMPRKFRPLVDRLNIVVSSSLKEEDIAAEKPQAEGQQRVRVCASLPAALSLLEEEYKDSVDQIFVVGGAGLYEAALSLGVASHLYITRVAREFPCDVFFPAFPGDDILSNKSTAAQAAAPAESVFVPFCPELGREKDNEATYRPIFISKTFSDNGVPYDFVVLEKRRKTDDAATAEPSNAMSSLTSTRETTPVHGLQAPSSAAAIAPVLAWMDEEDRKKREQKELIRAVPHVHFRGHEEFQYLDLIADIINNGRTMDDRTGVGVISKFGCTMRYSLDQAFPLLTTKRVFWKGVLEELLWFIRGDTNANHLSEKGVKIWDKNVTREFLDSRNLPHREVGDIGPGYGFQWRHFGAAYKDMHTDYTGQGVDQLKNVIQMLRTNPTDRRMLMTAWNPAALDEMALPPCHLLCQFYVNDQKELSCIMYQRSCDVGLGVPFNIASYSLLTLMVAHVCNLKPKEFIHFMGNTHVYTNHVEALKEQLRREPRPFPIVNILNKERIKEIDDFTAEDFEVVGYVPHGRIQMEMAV
Kind of series: Inhibition of dihydrofolate reductase (DHFR) from Toxoplasma gondii(tg).

The target of series [3] is T3, Dihydrofolate reductase (Pneumocystis carinii, UniProt P16184).
T3 sequence (P16184 whole entry): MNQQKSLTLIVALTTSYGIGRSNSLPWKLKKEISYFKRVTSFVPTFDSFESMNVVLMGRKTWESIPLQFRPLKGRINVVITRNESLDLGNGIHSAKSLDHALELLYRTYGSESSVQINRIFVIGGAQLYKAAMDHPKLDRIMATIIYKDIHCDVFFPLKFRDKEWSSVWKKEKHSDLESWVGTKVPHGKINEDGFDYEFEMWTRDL
Description: Inhibition of dihydrofolate reductase (DHFR) from Pneumocystis carinii(pc)

Series [4] in a line: Log Ko/w value by LOGKOW program. Type of series: ADME. To be noted: octanol/water; read-out: Log Ko/w.
Series [5] in a line: The compound was tested for ratio of inhibition of cell growth and dihydrofolate reductase(DHFR). Type of series: functional.
In a further series the test system is Toxoplasma gondii. Kind of series: Inhibitory concentration of cell growth from Toxoplasma gondii. The series is classed as functional, organism-based.
The nature of series [6]: The compound was tested for ratio of inhibition of dihydrofolate reductase(DHFR) from rat(rl) liver and Pneumocystis carinii(pc).
The nature of series [7]: The compound was tested for ratio of inhibition of dihydrofolate reductase(DHFR) from rat(rl) liver and Toxoplasma gondii(tg).

Each structure is given as a SMILES string. pIC50: −log10 of the molar value.

For the compound `Cc1c(CN(C)c2ccccc2Cl)cnc2nc(N)nc(N)c12`, the pIC50 against Dihydrofolate reductase [1] is 7.00; in series [2], 7.74; against Dihydrofolate reductase [3] it was 7.08.
Turning to `Cc1c(CNc2ccccc2)cnc2nc(N)nc(N)c12`, the logP in series [4] stood at 1.79. In addition, the pIC50 on Dihydrofolate reductase [1] is 6.77; in series [2] it was 7.77; at Dihydrofolate reductase [3] it was 7.10; in the series with Toxoplasma gondii, 6.50. Further, the Ratio in series [5] was determined as 19.
Consider `COc1ccc(NCc2cnc3nc(N)nc(N)c3c2C)cc1OC`, for which, at Dihydrofolate reductase [1], the pIC50 was 7.36.
Turning to `COc1ccc(N(C)Cc2cnc3nc(N)nc(N)c3c2C)cc1OC`, the figures for the Ratio in series [6] and in series [7] were 0.1 and 1.5, respectively.
Turning to `Cc1c(CNc2cccc(Cl)c2)cnc2nc(N)nc(N)c12`, the pIC50 is 7.43 on Dihydrofolate reductase [1], 7.96 in series [2] and 7.64 against Dihydrofolate reductase [3].
The matching figures for `COc1ccccc1NCc1cnc2nc(N)nc(N)c2c1C`: 6.77, 7.64 and 6.93.
`COc1cccc(N(C)Cc2cnc3nc(N)nc(N)c3c2C)c1`: the negative-log IC50 (pIC50) against Dihydrofolate reductase [1] is 7.74; in series [2] it was 8.20; against Dihydrofolate reductase [3] it was 7.52.
As to `Cc1c(CN(C)c2ccc(Br)cc2)cnc2nc(N)nc(N)c12`, the pIC50 at Dihydrofolate reductase [1] was 7.44; in series [2], 7.52; against Dihydrofolate reductase [3], 7.43.
`Cc1c(CNc2ccccc2Cl)cnc2nc(N)nc(N)c12`: in series [4], the logP is 2.35. Besides, the pIC50 on Dihydrofolate reductase [1] was 7.06; in series [2], 8.15; at Dihydrofolate reductase [3], 7.33; in the series with Toxoplasma gondii, 7.24. The Ratio in series [5] is 8.
For `COc1ccc(NCc2cnc3nc(N)nc(N)c3c2C)cc1`, the figures for the negative-log IC50 (pIC50) (against Dihydrofolate reductase [1]; in series [2]; against Dihydrofolate reductase [3]) were 7.25, 7.92 and 7.02, respectively.
Regarding `COc1cccc(NCc2cnc3nc(N)nc(N)c3c2C)c1`, the logP in series [4] was 2.14. Besides, the negative logarithm of the IC50 (pIC50) is 7.10 on Dihydrofolate reductase [1], 8.13 in series [2], 7.16 on Dihydrofolate reductase [3] and 6.43 in the series with Toxoplasma gondii. In addition, the Ratio in series [5] came to 50.
Consider `Cc1c(CNc2ccc(Cl)cc2)cnc2nc(N)nc(N)c12`, for which the negative logarithm of the IC50 (pIC50) was 7.29 against Dihydrofolate reductase [1], 7.72 in series [2] and 7.26 against Dihydrofolate reductase [3].
For `Cc1c(CNc2ccc(Br)cc2)cnc2nc(N)nc(N)c12` the same measures were 7.46, 8.02 and 7.09.
For `COc1ccc(N(C)Cc2cnc3nc(N)nc(N)c3c2C)cc1`, the values for the pIC50 (against Dihydrofolate reductase [1]; in series [2]; on Dihydrofolate reductase [3]) were 7.89, 8.14 and 7.46, respectively.
Turning to `COc1cc(N(C)Cc2cnc3nc(N)nc(N)c3c2C)cc(OC)c1OC`, in series [4], the logP stood at 1.76.
In the case of `COc1ccc(OC)c(N(C)Cc2cnc3nc(N)nc(N)c3c2C)c1`, the logP in series [4] was found to be 2.42. Besides, in series [5], the Ratio was 35.
For the compound `Cc1c(CN(C)c2ccc(Cl)cc2)cnc2nc(N)nc(N)c12`, the pIC50 against Dihydrofolate reductase [1] is 7.59; in series [2] it was 8.27; at Dihydrofolate reductase [3], 7.54.
